Experimental data reported in ChEMBL document CHEMBL1131548, “Synthesis and biological evaluation of two analogues of (S)-alpha-methyl-3-carboxyphenylalanine” (Bioorg Med Chem Lett, 1998).
Active and inactive are the calls of the source. The rule behind the calls is not given here.

Legend:
[1] = target: Metabotropic glutamate receptor 6 (Homo sapiens) (UniProt O15303); assay: Compound was evaluated for its agonist activity against mGluR6 in Chinese hamster ovary (CHO) cells at a concentration of 300 uM; type: functional, cell-based
Sequence of Metabotropic glutamate receptor 6 (Homo sapiens) (O15303 whole entry): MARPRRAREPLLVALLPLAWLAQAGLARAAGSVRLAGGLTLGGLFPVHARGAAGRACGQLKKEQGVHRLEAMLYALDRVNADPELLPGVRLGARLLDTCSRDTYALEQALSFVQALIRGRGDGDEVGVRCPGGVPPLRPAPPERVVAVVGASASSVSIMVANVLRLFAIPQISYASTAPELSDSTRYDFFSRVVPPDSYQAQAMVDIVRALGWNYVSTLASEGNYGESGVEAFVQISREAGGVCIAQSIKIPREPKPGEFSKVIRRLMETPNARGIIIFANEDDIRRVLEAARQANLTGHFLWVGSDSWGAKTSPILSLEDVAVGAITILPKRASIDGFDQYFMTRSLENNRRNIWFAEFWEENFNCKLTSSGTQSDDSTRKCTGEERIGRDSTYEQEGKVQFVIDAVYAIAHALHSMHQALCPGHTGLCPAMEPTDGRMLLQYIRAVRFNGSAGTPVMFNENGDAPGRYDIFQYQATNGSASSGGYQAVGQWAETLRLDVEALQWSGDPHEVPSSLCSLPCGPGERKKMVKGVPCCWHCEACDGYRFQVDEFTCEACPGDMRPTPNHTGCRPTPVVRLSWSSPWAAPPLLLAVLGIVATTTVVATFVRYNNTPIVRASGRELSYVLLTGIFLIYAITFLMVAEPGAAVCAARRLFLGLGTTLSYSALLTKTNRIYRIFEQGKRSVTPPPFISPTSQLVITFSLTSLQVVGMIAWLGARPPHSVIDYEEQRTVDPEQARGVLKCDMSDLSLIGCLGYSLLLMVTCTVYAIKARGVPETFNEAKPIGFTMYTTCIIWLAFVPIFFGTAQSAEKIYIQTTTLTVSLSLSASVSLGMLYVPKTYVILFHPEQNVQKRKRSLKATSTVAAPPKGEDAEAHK

Rattus norvegicus = species on record: Rattus norvegicus; assay: Compound was evaluated for its antagonist activity and inhibition of forskolin-stimulated cAMP formation by L-AP4 (10 uM), in adult rat cortical slices; type: functional
[2] = target: Metabotropic glutamate receptor 6 (Homo sapiens) (UniProt O15303); assay: Compound was evaluated for its agonist activity against mGluR6 in Chinese hamster ovary (CHO) cells; Inactive; type: functional, cell-based

C[C@](N)(Cc1cccc(P(=O)(O)O)c1)C(=O)O
inhibition [1]: 27%

C[C@](N)(Cc1cccc(C(=O)O)c1)C(=O)O
IC50 (Rattus norvegicus): 1 µM

C[C@@]1(C(=O)O)Cc2cc(C(=O)O)ccc2CN1
inhibition [2]: inactive
